Assays:
CDK2/CycE = target: T1, CDK2/CycE (Homo sapiens, UniProt P24941); test: CDK2 HTRF assay (assay 4); assay type: biochemical; conditions: IC50 assay 4/IC50 assay 2
T1 construct: GST; purchased ProQinase GmbH (Freiburg, Germany); host or cells: insect cells (Sf9)
Excerpt: CDK2/CycE-inhibitory activity of compounds of the present invention was quantified employing the CDK2/CycE HTRF assay as described in the following paragraphs.
Recombinant fusion proteins of GST and human CDK2 and of GST and human CycE, expressed in insect cells (Sf9) and purified by Glutathion-Sepharose affinity chromatography, were purchase from ProQinase GmbH (Freiburg, Germany). As substrate for the kinase reaction biotinylated peptide biotin-Ttds-YISPLKSPYKISEG (C-terminus in amid form) was used which can be purchased e.g. form the company JERINI peptide technologies (Berlin, Germany).
CDK2/CycE was incubated for 60 min at 22° C. in the presence of different concentrations of test compounds in 5 μl assay buffer [50 mM Tris/HCl pH 8.0, 10 mM MgCl2, 1.0 mM dithiothreitol, 0.1 mM sodium ortho-vanadate, 10 μM adenosine-tri-phosphate (ATP), 0.75 μM substrate, 0.01% (v/v) Nonidet-P40 (Sigma), 1% (v/v) dimethylsulfoxide]. The concentration of CDK2/CycE was adjusted depending of the activity of the enzyme lot and was chosen appropriate to have the assay in the linear range, typical concentrations were in the range of 1 ng/ml. The reaction was stopped by the addition of 5 μl of a solution of HTRF detection reagents (0.2 μM streptavidine-XLent and 3.4 nM Phospho-(Ser) CDKs Substrate Antibody [product #2324B, Cell Signalling Technology, Danvers, Mass., USA} and 4 nM Prot-A-EuK [Protein A labeled with Europium Cryptate from Cis biointernational, France, product no. 61PRAKLB]) in an aqueous EDTA-solution (100 mM EDTA, 800 mM KF, 0.2% (w/v) bovine serum albumin in 100 mM HEPES/NaOH pH 7.0).

Tie2 = Tie2 (Homo sapiens, UniProt Q02763); test: Tie-2-Kinase HTRF-Assay without kinase preactivation (assay 2); assay type: biochemical; set-up: fusion protein of GST and the intracellular domains of Tie-2; GST; made in house; host or cells: insect cells (Hi-5); conditions: 10 μM ATP, pIC50 = -log IC50 in molar concentration
Chain of Tie2 (Q02763 770-1124 limits assumed, species assumed): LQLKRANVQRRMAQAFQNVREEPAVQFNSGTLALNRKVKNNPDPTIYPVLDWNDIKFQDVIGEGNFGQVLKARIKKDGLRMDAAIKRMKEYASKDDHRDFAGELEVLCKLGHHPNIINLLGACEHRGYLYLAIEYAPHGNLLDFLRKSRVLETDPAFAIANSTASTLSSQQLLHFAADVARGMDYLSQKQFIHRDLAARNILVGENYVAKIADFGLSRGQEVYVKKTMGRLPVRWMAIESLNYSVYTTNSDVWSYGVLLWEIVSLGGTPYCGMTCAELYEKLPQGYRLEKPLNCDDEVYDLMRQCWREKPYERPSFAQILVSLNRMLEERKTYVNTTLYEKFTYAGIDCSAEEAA
Excerpt: Tie2-inhibitory activity of compounds of the present invention was quantified employing two Tie2 HTRF assay as described in the following paragraphs.
A recombinant fusion protein of GST and the intracellular domains of Tie-2, expressed in insect cells (Hi-5) and purified by Glutathion-Sepharose affinity chromatography was used as kinase. Alternatively, commercially available GST-Tie2-fusion protein (Upstate Biotechnology, Dundee, Scotland) can be used As substrate for the kinase reaction the biotinylated peptide biotin-Ahx-EPKDDAYPLYSDFG (C-terminus in amid form) was used which can be purchased e.g. from the company Biosynthan GmbH (Berlin-Buch, Germany). Detection of phosphorylated product is achieved specifically by a trimeric detection complex consisting of the phosphorylated substrate, streptavidin-XLent (SA-XLent) which binds to biotin, and Europium Cryptate-labeled anti-phosphotyrosine antibody PT66 which binds to phosphorylated tyrosine.
Tie-2 (3.5 ng/measurement point) was incubated for 60 min at 22° C. in the presence of 10 μM adenosine-tri-phosphate (ATP) and 1 μM substrate peptide (biotin-Ahx-EPKDDAYPLYSDFG-NH2) with different concentrations of test compounds (0 μM and concentrations in the range 0.001-20 μM) in 5 μl assay buffer [50 mM Hepes/NaOH pH 7, 10 mM MgCl2, 0.5 mM MnCl2, 1.0 mM dithiothreitol, 0.01% NP40, protease inhibitor mixture (“Complete w/o EDTA” from Roche, 1 tablet per 2.5 ml), 1% (v/v) dimethylsulfoxide]. The reaction was stopped by the addition of 5 μl of an aqueous buffer (25 mM Hepes/NaOH pH 7.5, 0.28% (w/v) bovine serum albumin) containing EDTA (90 mM) and the HTRF (Homogeneous Time Resolved Fluorescence) detection reagents streptavidine-XLent (0.2 μM, from Cis Biointernational, Marcoule, France) and PT66-Eu-Chelate (0.3 ng/μl; a europium-chelate labelled anti-phospho-tyrosine antibody from Perkin Elmer).
The resulting mixture was incubated 1 h at 22° C. to allow the binding of the biotinylated phosphorylated peptide to the streptavidine-XLent and the PT66-Eu-Chelate. Subsequently the amount of phosphorylated substrate peptide was evaluated by measurement of the resonance energy transfer from the PT66-Eu-Chelate to the streptavidine-XLent. Therefore, the fluorescence emissions at 620 nm and 665 nm after excitation at 350 nm was measured in a HTRF reader, e.g. a Rubystar (BMG Labtechnologies, Offenburg, Germany) or a Viewlux (Perkin-Elmer). The ratio of the emissions at 665 nm and at […] was taken as the measure for the amount of phosphorylated substrate peptide. The data were normalised (enzyme reaction without inhibitor=0% inhibition, all other assay components but no enzyme=100% inhibition) and IC50 values were calculated by a 4 parameter fit using an inhouse software.

Selectivity vs. CDK2 (CDK2/CycE) | IC50 (Tie2) | Structure (SMILES)
>20 fold | < 100 nM | O=C(Nc1ccc(-c2cnc3nc2NCCCNS(=O)(=O)c2cccc(c2)N3)cc1)C1(c2cccc(Cl)c2)CC1 [Example 5, 1-(3-Chloro-phenyl)-cyclopropane-arboxylic acid [4-(13,13-dioxo-13λ^6-thia-2,4,8,12,19-pentaaza-tricyclo[12.3.1.1^3,7]-nadeca-1(18),3(19),4,6,14,16-hexaen-6-yl)-phenyl]-amide]
>20 fold | < 100 nM | Cc1ccccc1C1(C(=O)Nc2ccc(-c3cnc4nc3NCCCNS(=O)(=O)c3cccc(c3)N4)cc2)CC1 [Example 2, 1-o-Tolyl-cyclopropane-arboxylic acid [4-(13,13-dioxo-13λ^6-thia-2,4,8,12,19-pentaaza-tricyclo[12.3.1.1^3,7]nonadeca-1(18),3(19),4,6,14,16-hexaen-6-yl)-phenyl]-amide]
>20 fold | < 100 nM | O=C(Nc1ccc(-c2cnc3nc2NCCCNS(=O)(=O)c2cccc(c2)N3)cc1)C1(c2ccc(F)cc2)CC1 [Example 9, 1-(4-Fluoro-phenyl)-cyclopropane-carboxylic acid [4-(13,13-dioxo-13λ^6-thia-2,4,8,12,19-pentaaza-tricyclo[12.3.1.1^3.7]nonadeca-1(18),3(19),4,6,14,16-hexaen-6-yl)-phenyl]-amide]
>20 fold | < 100 nM | COc1cccc(C2(C(=O)Nc3ccc(-c4cnc5nc4NCCCNS(=O)(=O)c4cccc(c4)N5)cc3)CC2)c1 [Example 3, 1-(3-Methoxy-phenyl)-cyclopropane-carboxylic acid [4-(13,13-dioxo-13λ^6-thia-2,4,8,12,19-pentaaza-tricyclo[12.3.1.1^3,7]nonadeca-1(18),3(19),4,6,14,16-hexaen-6-yl)-phenyl]-amide]
>20 fold | < 100 nM | Cc1ccc(C2(C(=O)Nc3ccc(-c4cnc5nc4NCCCNS(=O)(=O)c4cccc(c4)N5)cc3)CC2)cc1 [Example 1, 1-p-Tolyl-cyclopropane-carboxylic acid [4-(13,13-dioxo-13λ^6-thia-2,4,8,12,19-pentaaza-tricyclo[12.3.1.1^3,7]nonadeca-1(18),3(19),4,6, 14,16-hexaen-6-yl)-phenyl]-amide]
>20 fold | < 100 nM | CC(C)(C(=O)Nc1ccc(-c2cnc3nc2NCCCNS(=O)(=O)c2cccc(c2)N3)cc1)c1ccc(Cl)cc1 [Example 13, 2-(4-Chloro-phenyl)-N-[4-(13,13-dioxo-13λ^6-thia-2,4,8,12,19-pentaaza-tricyclo[12.3.1.1^3,7]-nonadeca-1(18),3(19),4,6,14,16-hexaen-6-yl)-phenyl]-isobutyramide]
>20 fold | < 100 nM | COc1ccc(C2(C(=O)Nc3ccc(-c4cnc5nc4NCCCNS(=O)(=O)c4cccc(c4)N5)cc3)CC2)cc1 [Example 4, 1-(4-Methoxy-phenyl)-cyclopropane-carboxylic acid [4-(13,13-dioxo-13λ^6-thia-2,4,8,12,19-pentaaza-tricyclo[12.3.1.1^3,7]-nonadeca-1(18),3(19),4,6,14,16-hexaen-6-yl)-phenyl]-amide]
>20 fold | < 100 nM | O=C(Nc1ccc(-c2cnc3nc2NCCCNS(=O)(=O)c2cccc(c2)N3)cc1)C1(c2cc(C(F)(F)F)ccc2F)CC1 [Example 12, 1-(2-Fluoro-5-trifluoromethyl-phenyl)-cyclopropane-carboxylic acid [4-(13,13-dioxo-13λ^6-thia-2,4,8,12,19-pentaaza-tricyclo[12.3.1.1^3,7]-nonadeca-1(18),3(19),4,6,14,16-hexaen-6-yl)-phenyl]-amide]
>20 fold | < 100 nM | O=C(Nc1ccc(-c2cnc3nc2NCCCNS(=O)(=O)c2cccc(c2)N3)cc1)C1(c2ccc(Cl)cc2)CC1 [Example 6, 1-(4-Chloro-phenyl)-cyclopropane-carboxylic acid [4-(13,13-dioxo-13λ^6-thia-2,4,8,12,19-pentaaza-tricyclo[12.3.1.1^3,7]-nonadeca-1(18),3(19),4,6,14,16-hexaen-6-yl)-phenyl]-amide]
>20 fold | < 100 nM | O=C(Nc1ccc(-c2cnc3nc2NCCCNS(=O)(=O)c2cccc(c2)N3)cc1)C1(c2ccccc2F)CC1 [Example 7, 1-(2-Fluoro-phenyl)-cyclopropane-carboxylic acid [4-(13,13-dioxo-13λ^6-thia-2,4,8,12,19-pentaaza-tricyclo[12.3.1.1^3,7]nonadeca-1(18),3(19),4,6,14,16-hexaen-6-yl)-phenyl]-amide]
>20 fold | 100 to 1000 nM | O=C(Nc1ccc(-c2cnc3nc2NCCCNS(=O)(=O)c2cccc(c2)N3)cc1)C1(c2cccc(C(F)(F)F)c2)CC1 [Example 10, 1-(3-Trifluoromethyl-phenyl)-cyclopropane-carboxylic acid [4-(13,13-dioxo-13λ^6-thia-2,4,8,12,19-pentaaza-tricyclo[12.3.1.1^3,7]nonadeca-1(18),3(19),4,6,14,16-hexaen-6-yl)-phenyl]-amide]
>20 fold | < 100 nM | O=C(Nc1ccc(-c2cnc3nc2NCCCNS(=O)(=O)c2cccc(c2)N3)cc1)C1(c2cccc(F)c2)CC1 [Example 8, 1-(3-Fluoro-phenyl)-cyclopropane-carboxylic acid [4-(13,13-dioxo-13λ^6-thia-2,4,8,12,19-pentaaza-tricyclo[12.3.1.1^3,7]nonadeca-1(18),3(19),4,6,14,16-hexaen-6-yl)-phenyl]-amide]
>20 fold | < 100 nM | O=C(Nc1ccc(-c2cnc3nc2NCCCNS(=O)(=O)c2cccc(c2)N3)cc1)C1(c2ccc(C(F)(F)F)cc2)CC1 [Example 11, 1-(4-Trifluoromethyl-phenyl)-cyclopropane-carboxylic acid [4-(13,13-dioxo-13λ^6-thia-2,4,8,12,19-pentaaza-tricyclo[12.3.1.1^3,7]nonadeca-1(18),3(19),4,6,14,16-hexaen-6-yl)-phenyl]-amide]
